According to PubChem BioAssay (NCI):
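Values below derive from 48-hour exposures of cells grown in 96-well plates, with endpoints linearly interpolated between the two concentrations bracketing the appropriate inhibition level. At the GI50, growth is halved. The concentration for full growth arrest is given as TGI.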

Columns and labels:
Assay in all cases: DTP human tumour cell line panel, 48 h
[1] = test system: 786-0 renal
[2] = test system: A498 renal
[3] = test system: A549 NSCLC
[4] = test system: ACHN renal
[5] = test system: BT-549 breast
[6] = test system: CAKI-1 renal
[7] = test system: CCRF-CEM leukemia
[8] = test system: COLO 205 colon
[9] = test system: DU-145 prostate
[10] = test system: EKVX NSCLC
[11] = test system: HCC-2998 colon
[12] = test system: HCT-116 colon
[13] = test system: HCT-15 colon
[14] = test system: HL-60(TB) leukemia
[15] = test system: HOP-62 NSCLC
[16] = test system: HOP-92 NSCLC
[17] = test system: HS 578T breast
[18] = test system: HT29 colon
[19] = test system: IGROV1 ovarian
[20] = test system: K-562 leukemia
[21] = test system: KM12 colon
[22] = test system: LOX IMVI melanoma
[23] = test system: M14 melanoma
[24] = test system: MALME-3M melanoma
[25] = test system: MCF7 breast
[26] = test system: MDA-MB-231 breast
[27] = test system: MDA-MB-435
[28] = test system: MDA-MB-468 breast
[29] = test system: MOLT-4 leukemia
[30] = test system: NCI-H226 lung
[31] = test system: NCI-H23 lung
[32] = test system: NCI-H460 lung
[33] = test system: NCI-H522 lung
[34] = test system: NCI/ADR-RES ovarian
[35] = test system: OVCAR-3 ovarian
[36] = test system: OVCAR-4 ovarian
[37] = test system: OVCAR-5 ovarian
[38] = test system: OVCAR-8 ovarian
[39] = test system: PC-3 prostate
[40] = test system: RPMI-8226 leukemia
[41] = test system: RXF 393 renal
[42] = test system: SF-268 CNS
[43] = test system: SF-295 CNS
[44] = test system: SF-539 CNS
[45] = test system: SK-MEL-2 melanoma
[46] = test system: SK-MEL-28 melanoma
[47] = test system: SK-MEL-5 melanoma
[48] = test system: SK-OV-3 ovarian
[49] = test system: SN12C renal
[50] = test system: SNB-19 CNS
[51] = test system: SNB-75 CNS
[52] = test system: SR leukemia
[53] = test system: SW-620 colon
[54] = test system: T-47D breast
[55] = test system: TK-10 renal
[56] = test system: U251 CNS
[57] = test system: UACC-257 melanoma
[58] = test system: UACC-62 melanoma
[59] = test system: UO-31 renal

`CCOP(=O)(OCC)O[C@H]1CC[C@]2(C)[C@H]3CC[C@@H]4[C@@H]([C@](C)(O)CCC=C(C)C)CC[C@@]4(C)[C@]3(C)CC[C@H]2C1(C)C` was tested, and the GI50 [1] was 11.9 µM, the TGI [1] was 28.3 µM and the GI50 [2] was 12.4 µM. For the same molecule, the TGI [2] was 25.1 µM, the GI50 [3] was 12.6 µM and the TGI [3] was 30.3 µM. For the same molecule, the GI50 [4] was 12.5 µM, the TGI [4] was 25 µM and the GI50 [5] was 14.9 µM. For the same molecule, the TGI [5] was 29.1 µM, the GI50 [6] was 10.3 µM and the TGI [6] was 22.8 µM. The GI50 [7] was 11.5 µM, the TGI [7] was 29.3 µM and the GI50 [8] was 12.4 µM. It also gave a TGI [8] of 29.5 µM, a GI50 [9] of 14.8 µM and a TGI [9] of 30.4 µM. It also gave a GI50 [10] of 10.1 µM, a TGI [10] of 21.6 µM and a GI50 [11] of 13.4 µM. It also gave a TGI [11] of 26 µM, a GI50 [12] of 5.91 µM and a TGI [12] of 21.7 µM. The GI50 [13] was 10.7 µM, the TGI [13] was 22.4 µM and the GI50 [14] was 8.49 µM. The TGI [14] was 33.2 µM, the GI50 [15] was 14.1 µM and the TGI [15] was 29.5 µM. The GI50 [16] was 10.3 µM, the TGI [16] was 23.4 µM and the GI50 [17] was 11.5 µM. For the same molecule, the TGI [17] was 31.8 µM, the GI50 [18] was 7.35 µM and the TGI [18] was 23.2 µM. For the same molecule, the GI50 [19] was 13.8 µM, the TGI [19] was 27.5 µM and the GI50 [20] was 6.99 µM. It also gave a TGI [20] of 98.8 µM, a GI50 [21] of 15.4 µM and a TGI [21] of 33.2 µM. The GI50 [22] was 12.7 µM, the TGI [22] was 25.2 µM and the GI50 [23] was 14.9 µM. For the same molecule, the TGI [23] was 35 µM, the GI50 [24] was 11.7 µM and the TGI [24] was 24 µM. The GI50 [25] was 7.26 µM, the TGI [25] was 20.5 µM and the GI50 [26] was 11.5 µM. For the same molecule, the TGI [26] was 23.7 µM, the GI50 [27] was 12.8 µM and the TGI [27] was 27.1 µM. For the same molecule, the GI50 [28] was 5.1 µM, the TGI [28] was 18.2 µM and the GI50 [29] was 8.07 µM. For the same molecule, the TGI [29] was 29.1 µM, the GI50 [30] was 11.8 µM and the TGI [30] was 25.3 µM. For the same molecule, the GI50 [31] was 10.1 µM, the TGI [31] was 21.7 µM and the GI50 [32] was 12.9 µM. It also gave a TGI [32] of 27.6 µM, a GI50 [33] of 11.5 µM and a TGI [33] of 25.9 µM. For the same molecule, the GI50 [34] was 14.7 µM, the TGI [34] was 28.5 µM and the GI50 [35] was 13.5 µM. For the same molecule, the TGI [35] was 27.2 µM, the GI50 [36] was 13.4 µM and the TGI [36] was 32 µM. It also gave a GI50 [37] of 12.7 µM, a TGI [37] of 25.2 µM and a GI50 [38] of 13.2 µM. The TGI [38] was 30.8 µM, the GI50 [39] was 3.45 µM and the TGI [39] was 17 µM. For the same molecule, the GI50 [40] was 3.02 µM, the TGI [40] was 17.5 µM and the GI50 [41] was 6.45 µM. It also gave a TGI [41] of 19.5 µM, a GI50 [42] of 12.7 µM and a TGI [42] of 30.9 µM. For the same molecule, the GI50 [43] was 12.4 µM, the TGI [43] was 24.8 µM and the GI50 [44] was 13.2 µM. The TGI [44] was 25.8 µM, the GI50 [45] was 13.2 µM and the TGI [45] was 26.9 µM. The GI50 [46] was 12.9 µM, the TGI [46] was 25.8 µM and the GI50 [47] was 10.4 µM. For the same molecule, the TGI [47] was 22.2 µM, the GI50 [48] was 12.3 µM and the TGI [48] was 27 µM. For the same molecule, the GI50 [49] was 11.8 µM, the TGI [49] was 24 µM and the GI50 [50] was 13.4 µM. It also gave a TGI [50] of 26.1 µM, a GI50 [51] of 7.02 µM and a TGI [51] of 22.4 µM. The GI50 [52] was 3.12 µM, the TGI [52] was 98.8 µM and the GI50 [53] was 13.2 µM. The TGI [53] was 27.4 µM, the GI50 [54] was 7.62 µM and the TGI [54] was 25.2 µM. It also gave a GI50 [55] of 13.5 µM, a TGI [55] of 27.7 µM and a GI50 [56] of 11.8 µM. The TGI [56] was 28.4 µM, the GI50 [57] was 12.4 µM and the TGI [57] was 27.3 µM. For the same molecule, the GI50 [58] was 10.7 µM, the TGI [58] was 22.6 µM and the GI50 [59] was 10.1 µM. It also gave a TGI [59] of 21.6 µM.
